Assay results published in US10577366B2, “Crystalline forms of a compound that inhibits bromodomain” (Plexxikon Inc., priority 2017, dated 2020).
Entries after “also recorded” stand apart in the source; their conditions may differ. Values belong to the compound of their own block, whether it stands above or below them.

Experiments:
Format in all cases: physicochemical
[1] = Solid form conversion on heating (XRPD / DSC)
Description: For XRPD analyses provided herein, a PANalytical Empyrean X-ray powder diffract meter was used, and the XRPD parameters used are summarized in Table 1.
DSC was performed using a TA Q200/Q2000 DSC from TA Instruments. TGA data were collected using a TA Q500/Q5000 TGA from TA Instruments. […]
Compound I Form C was prepared via anti-solvent addition in acetone/n-heptane at RT. […] (peak temperature) followed by two endotherms at 232.8° C. and 265.7° C. (onset temperature). […] It is also contemplated that Form C may be an anhydrate based on the characterization results. […]

[2] = Slurry turnover between forms in ACN at various temperatures; details: for Solid form after slurry turnover (XRPD): 1:1 mass mixture with Form A in ACN
Description: The conversion relationship between anhydrous Compound I Form A and Compound I Form C was investigated via slurry turnover at various temperatures (RT (25±3° C.) or 50° C.) as follows.
(§1) About 5 mg of Compound I Form A was added to 1.0 mL of ACN, and the suspension was stirred at 50° C. for 2 hours to reach equilibrium. The suspension was filtered into a vial, which included 5 mg of Compound I Form A and Compound I Form C (mass ratio of 1:1). The mixture was stirred at a desired temperature for 4 days, and the solids were then analyzed by XRPD and DSC.
The conversion relationship between anhydrate Compound I Form A and Compound I Form E was investigated via slurry turnover at various temperatures (RT (25±3° C.) or 50° C.) and water activities as follows.
as §1, with “For various temperatures: About” for “About”, “included 2” for “included 5”, “Form E” for “Form C”, “by XRPD.” for “by XRPD and DSC.”

[3] = Slurry turnover between Form A and E at various water activities; details: 21 days, XRPD
Description: For various water activities: About 10 mg of Compound I Form A was added to 1.0 mL EtOH/H2O with different aw (Table 12), and the suspension was stirred at RT for 1 hour to reach equilibrium. The suspension was filtered into a vial, which included 2 mg of Compound I Form A and Compound I Form E (mass ratio of 1:1). The mixture was stirred at the desired aw for 21 days, and the solids were then analyzed by XRPD.

[4] = Dynamic vapor sorption (DVS) isotherm, solid form stability as a function of humidity; details: for Water uptake: DVS at 25° C., up to 80% RH, solids pre-dried at 0% RH; for Form change after DVS test according to XRPD: after DVS at 25° C., 0% RH to 95% RH
Description: DVS was measured via a SMS (Surface Measurement Systems) DVS Intrinsic. The relative humidity at 25° C. were calibrated against deliquescence point of LiCl, Mg(NO3)2 and KCl.
DVS isotherm plot was collected at 25° C. to investigate the solid form stability as a function of humidity for Form A. Solids were pre-dried at 0% RH to remove surface solvent or water before DVS.
DVS isotherm plot was collected at 25° C. to investigate the solid form stability as a function of humidity for Form C. Solids were pre-dried at 0% RH to remove surface solvent or water before DVS. Water uptake of 0.6% was observed up to 80% RH (FIG. 9).

[5] = stirred 4 days at RT (25±3° C.)

Compound: Cc1noc(C)c1-c1cnc2c(-c3ccc(C(=O)O)cc3)cn(C(C)(c3ccccn3)c3ccccn3)c2c1 [Form A, 4-(1-(1,1-di(pyridin-2-yl)ethyl)-6-(3,5-dimethylisoxazol-4-yl)-1H-pyrrolo[3,2-b]pyridin-3-yl)benzoic acid]
Relative stability of Form A versus Form C ([1]; based on the Burger-Ramberger Rules, before melting): monotropically more stable than Form C
Water uptake [4]: 0.5%
Form change after DVS test according to XRPD [4]: No form change
Hygroscopicity ([4]; judged from DVS water uptake up to 80% RH at 25° C.): slightly hygroscopic
Stability relationship between Form A and Form C ([2]; from slurry turnover at RT and 50° C. and DSC, monotropic): more stable

Compound: Cc1noc(C)c1-c1cnc2c(-c3ccc(C(=O)O)cc3)cn(C(C)(c3ccccn3)c3ccccn3)c2c1 [Form B, 4-(1-(1,1-di(pyridin-2-yl)ethyl)-6-(3,5-dimethylisoxazol-4-yl)-1H-pyrrolo[3,2-b]pyridin-3-yl)benzoic acid]
Solid form after heating (XRPD) ([1]; after heating to 110° C.): converted to Form A

Compound: Cc1noc(C)c1-c1cnc2c(-c3ccc(C(=O)O)cc3)cn(C(C)(c3ccccn3)c3ccccn3)c2c1 [Form C, 4-(1-(1,1-di(pyridin-2-yl)ethyl)-6-(3,5-dimethylisoxazol-4-yl)-1H-pyrrolo[3,2-b]pyridin-3-yl)benzoic acid]
Solid form after heating (XRPD/DSC) ([1]; after heating above the exothermic peak (174.5° C., peak temperature)): completely converted to Form A; also recorded: convert to Form A
Water uptake [4]: 0.6%
Form change after DVS test according to XRPD [4]: Phase transition of Form C to Form A
Solid form after slurry turnover (XRPD) ([2]; stirred 4 days at 50° C.): converted to Form A
Solid form after slurry turnover (XRPD) [2, 5]: converted to Form A

Other lines, results leading:

Solid form after heating (XRPD) ([1]; after heating to 150° C.): converted to Form A
Solid form after slurry turnover (XRPD) ([2]; stirred 4 days at 50° C.): converted to Form A
Solid form after slurry turnover (XRPD) [2, 5]: converted to Form A
Final Form ([3]; Aw 0.298 (EtOH/H2O 952:48 v/v)): converted to Form A
Final Form ([3]; Aw 0.605 (EtOH/H2O 855:145 v/v)): converted to Form A
Final Form ([3]; Aw 0.900 (EtOH/H2O 450:550 v/v)): converted to Form A
Compound: Cc1noc(C)c1-c1cnc2c(-c3ccc(C(=O)O)cc3)cn(C(C)(c3ccccn3)c3ccccn3)c2c1 [Form E, 4-(1-(1,1-di(pyridin-2-yl)ethyl)-6-(3,5-dimethylisoxazol-4-yl)-1H-pyrrolo[3,2-b]pyridin-3-yl)benzoic acid]

Solid form after heating (XRPD) ([1]; after heating to 145° C. and cooling to ambient conditions): converted to Form C
Compound: Cc1noc(C)c1-c1cnc2c(-c3ccc(C(=O)O)cc3)cn(C(C)(c3ccccn3)c3ccccn3)c2c1 [Form D, 4-(1-(1,1-di(pyridin-2-yl)ethyl)-6-(3,5-dimethylisoxazol-4-yl)-1H-pyrrolo[3,2-b]pyridin-3-yl)benzoic acid]
